Results reported in PubChem BioAssay (NCI).
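1) Cells in 96-well plates. 2) Compound, 48 h, 5 concentrations. 3) Linear interpolation between surrounding doses. 4) Unreached endpoint = highest concentration. TGI marks complete inhibition of growth.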

How the values were obtained:
Assay in all cases: growth of human tumour cells (NCI), 48 h
RXF-631 renal = system: RXF-631 renal
TK-10 renal = system: TK-10 renal
MDA-MB-435 = system: MDA-MB-435
HS 578T breast = system: HS 578T breast
BT-549 breast = system: BT-549 breast
MDA-N = system: MDA-N
DU-145 prostate = system: DU-145 prostate
MDA-MB-231 breast = system: MDA-MB-231 breast
T-47D breast = system: T-47D breast
LXFL 529 NSCLC = system: LXFL 529 NSCLC
PC-3 prostate = system: PC-3 prostate

Compound | TGI (RXF-631 renal) [µM] | TGI (TK-10 renal) [µM] | TGI (MDA-MB-435) [µM] | TGI (HS 578T breast) [µM] | TGI (BT-549 breast) [µM] | TGI (MDA-N) [µM] | TGI (DU-145 prostate) [µM] | TGI (MDA-MB-231 breast) [µM] | TGI (T-47D breast) [µM] | TGI (LXFL 529 NSCLC) [µM] | TGI (PC-3 prostate) [µM]
CC(=O)NNc1nc(C)c(C(=O)NNC(=O)C(=O)Nc2cccc(C(C)=O)c2)s1 | 68.3 | 31.1 |  |  |  |  |  |  |  |  | 
COC(=O)C1=C(O)C(C(=O)OC)[C@]2(O)[C@@H](C(=O)OC)[C@H]1C[C@@H](c1ccccc1)[C@@H]2C(=O)OC (stereo partly drawn) |  | 53.5 | 30.6 | 76.8 | 33.5 | 19.1 | 27 | 49.3 | > 100 |  | 
CC(C)(C)C(=O)OCC1OC(N=[N+]=[N-])C(OC(=O)C(C)(C)C)C(OC(=O)C(C)(C)C)C1OC(=O)C(C)(C)C (stereo not drawn) |  | > 100 |  |  |  |  |  |  |  | > 100 | 
O=Nn1c2ccccc2c2cc([N+](=O)[O-])ccc21 |  | 32.1 | 32.8 | 82.9 | 38.3 | 37.5 | 28.5 | 39.9 | > 100 |  | 35
CC(C)OP(=O)(OC(C)C)C1=NN(c2ccc([N+](=O)[O-])cc2)C(P(=O)(OC(C)C)OC(C)C)=NN1c1ccc([N+](=O)[O-])cc1 |  | > 100 |  |  |  |  |  |  |  | > 100 | 
